Where a name gives a salt, the structure may show the parent alone.

For assay [1], the target named is T1, Human vitronectin receptor(αvβ3) (Homo sapiens, UniProt P05106+P06756).
T1 construct: purified from human placenta; from tissue; host or cells: human placenta
In words: Vitronectin adhesion assay (solid phase receptor assay, αvβ3). The conditions noted are these: inhibition of 50% of maximum binding of biotinylated vitronectin; highest concentration tested 1.0×10^-4 M; read-out: AvB3 IC50. The procedure:
The activity of the compounds of the present invention was tested in the following assays. […] Assay buffer, OPD substrate tablets, and RIA grade BSA were obtained from Sigma (St. Louis, Mo.). Anti-biotin antibody was obtained from Calbiochem (La Jolla, Calif.). Linbro microtiter plates were obtained from Flow Labs (McLean, Va.). ADP reagent was obtained from Sigma (St. Louis, Mo.). […] The purified human vitronectin receptor (αvβ3) was diluted from stock solutions to 1.0 μg/mL in Tris-buffered saline containing 1.0 mM Ca^++, Mg^++, and Mn^++, pH 7.4 (TBS^+++). The diluted receptor was immediately transferred to Linbro microtiter plates at 100 μL/well (100 ng receptor/well). The plates were sealed and incubated overnight at 4° C. to allow the receptor to bind to the wells. All remaining steps were at room temperature. The assay plates were emptied and 200 μL of 1% RIA grade BSA in TBS^+++ (TBS^+++ /BSA) were added to block exposed plastic surfaces. Following a 2 hour incubation, the assay plates were washed with TBS^+++ using a 96 well plate washer. […] The competition occurred for two hours after which all wells were washed with a plate washer as before. […] After 30 minutes, the plates were washed and incubated with OPD/H2 O2 substrate in 100 mM/L Citrate buffer, pH 5.0. […] The data were analyzed using a macro written for use with the EXCEL™ spreadsheet program. The mean, standard deviation, and % CV were determined for duplicate concentrations. The mean A450 values were normalized to the mean of four maximum-binding controls (no competitor added)(B-MAX). The normalized values were subjected to a four parameter curve fit algorithm [Rodbard et al., Int. […] Ser.

In assay [2] the target is T2, Human fibrinogen receptor (αIIbβ3) (Homo sapiens, UniProt P05106+P08514).
T2 construct: purified from outdated platelets; from tissue; host or cells: outdated platelets (human)
T2 sequence (P08514 32-887 limits assumed): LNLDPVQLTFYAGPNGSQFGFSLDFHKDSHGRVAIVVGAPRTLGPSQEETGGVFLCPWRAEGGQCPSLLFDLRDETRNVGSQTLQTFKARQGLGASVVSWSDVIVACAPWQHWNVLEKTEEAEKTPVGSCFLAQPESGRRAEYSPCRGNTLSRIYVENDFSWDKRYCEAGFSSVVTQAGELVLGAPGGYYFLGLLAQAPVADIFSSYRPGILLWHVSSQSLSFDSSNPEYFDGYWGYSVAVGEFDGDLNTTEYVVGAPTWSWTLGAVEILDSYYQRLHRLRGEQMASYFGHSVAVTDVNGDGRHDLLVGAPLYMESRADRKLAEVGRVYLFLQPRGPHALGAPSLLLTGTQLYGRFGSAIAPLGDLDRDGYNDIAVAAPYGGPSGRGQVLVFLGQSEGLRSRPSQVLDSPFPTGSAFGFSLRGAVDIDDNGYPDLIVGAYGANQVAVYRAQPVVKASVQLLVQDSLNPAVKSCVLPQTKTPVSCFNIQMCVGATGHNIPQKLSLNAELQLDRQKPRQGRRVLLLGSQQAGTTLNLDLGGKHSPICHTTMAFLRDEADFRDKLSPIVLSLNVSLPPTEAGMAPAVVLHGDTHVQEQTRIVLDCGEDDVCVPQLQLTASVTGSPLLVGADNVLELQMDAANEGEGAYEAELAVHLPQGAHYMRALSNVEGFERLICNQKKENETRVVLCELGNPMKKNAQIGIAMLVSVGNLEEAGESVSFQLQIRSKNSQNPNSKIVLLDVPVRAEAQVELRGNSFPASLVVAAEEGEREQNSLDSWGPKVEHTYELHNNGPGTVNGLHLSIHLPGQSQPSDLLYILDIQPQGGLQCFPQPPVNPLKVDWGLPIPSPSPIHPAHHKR
T2 sequence (P08514 891-1039 limits assumed): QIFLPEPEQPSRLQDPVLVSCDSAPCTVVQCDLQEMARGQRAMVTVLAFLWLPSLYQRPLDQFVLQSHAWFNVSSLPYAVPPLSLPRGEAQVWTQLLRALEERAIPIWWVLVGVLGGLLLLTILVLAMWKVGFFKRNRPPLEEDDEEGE
T2 sequence (P05106 27-788): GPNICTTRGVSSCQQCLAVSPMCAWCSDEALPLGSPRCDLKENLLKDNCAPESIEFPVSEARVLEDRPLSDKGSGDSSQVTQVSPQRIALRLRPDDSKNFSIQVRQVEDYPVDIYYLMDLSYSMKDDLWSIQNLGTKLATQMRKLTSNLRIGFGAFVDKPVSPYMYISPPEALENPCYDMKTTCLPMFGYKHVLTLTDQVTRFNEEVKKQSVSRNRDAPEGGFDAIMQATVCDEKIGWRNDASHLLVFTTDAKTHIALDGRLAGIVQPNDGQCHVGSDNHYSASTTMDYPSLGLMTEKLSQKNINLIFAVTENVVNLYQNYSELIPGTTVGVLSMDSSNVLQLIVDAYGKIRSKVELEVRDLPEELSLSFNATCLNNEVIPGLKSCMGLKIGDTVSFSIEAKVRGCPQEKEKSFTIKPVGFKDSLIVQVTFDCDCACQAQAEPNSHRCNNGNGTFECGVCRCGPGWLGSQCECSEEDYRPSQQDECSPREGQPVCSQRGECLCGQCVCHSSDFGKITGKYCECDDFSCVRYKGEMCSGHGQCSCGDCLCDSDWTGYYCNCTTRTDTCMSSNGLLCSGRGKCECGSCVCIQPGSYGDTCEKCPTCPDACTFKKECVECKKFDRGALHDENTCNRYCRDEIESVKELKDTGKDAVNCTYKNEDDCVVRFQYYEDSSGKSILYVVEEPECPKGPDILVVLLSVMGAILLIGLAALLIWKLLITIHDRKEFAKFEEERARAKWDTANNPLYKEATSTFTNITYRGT
As to the kind of experiment: Purified IIb/IIIa receptor assay (solid phase receptor assay). The note with it: inhibition of 50% of maximum binding of biotinylated vitronectin; highest concentration tested 1.0×10^-4 M. As to the method: The activity of the compounds of the present invention was tested in the following assays.
Human fibrinogen receptor (αIIbβ3) was purified from outdated platelets. […] Biotinylated human vitronectin was prepared by coupling NHS-biotin from Pierce Chemical Company (Rockford, Ill.) to purified vitronectin as previously described. […] Anti-biotin antibody was obtained from Calbiochem (La Jolla, Calif.). Linbro microtiter plates were obtained from Flow Labs (McLean, Va.). ADP reagent was obtained from Sigma (St. Louis, Mo.).
Solid Phase Receptor Assays
The purified human fibrinogen receptor (αIIbβ3) was diluted from stock solutions to 1.0 μg/mL in Tris-buffered saline containing 1.0 mM Ca^++, Mg^++, and Mn^++, pH 7.4 (TBS^+++). The diluted receptor was immediately transferred to Linbro microtiter plates at 100 μL/well (100 ng receptor/well). The plates were sealed and incubated overnight at 4° C. to allow the receptor to bind to the wells. All remaining steps were at room temperature. The assay plates were emptied and 200 μL of 1% RIA grade BSA in TBS^+++ (TBS^+++ /BSA) were added to block exposed plastic surfaces. Following a 2 hour incubation, the assay plates were washed with TBS^+++ using a 96 well plate washer. Logarithmic serial dilution of the test compound and controls were made starting at a stock concentration of 2 mM and using 2 nM biotinylated vitronectin in TBS^+++ /BSA as the diluent. This premixing of labeled ligand with test (or control) ligand, and subsequent transfer of 50 μL aliquots to the assay plate was carried out with a CETUS Propette robot; the final concentration of the labeled ligand was 1 nM and the highest concentration of test compound was 1.0×10^-4 M. The competition occurred for two hours after which all wells were washed with a plate washer as before. Affinity purified horseradish peroxidase labeled goat anti-biotin antibody was diluted 1:3000 in TBS^+++ /BSA and 125 μL were added to each well. After 30 minutes, the plates were washed and incubated with […]/H2 O2 substrate in 100 mM/L citrate buffer, pH 5.0. The plate was read with a microtiter plate reader at a wavelength of 450 nm and when the maximum-binding control wells reached an absorbance of about 1.0, the final A450 were recorded for analysis. The data were analyzed using a macro written for use with the EXCEL™ spreadsheet program. The mean, standard deviation, and % CV were determined for duplicate concentrations. The mean A450 values were normalized to the mean of four maximum-binding controls (no competitor added) (B-MAX). The normalized values were subjected to a four parameter curve fit algorithm, [Robard et al., Int.

T1 sequence (P06756 31-889 limits assumed): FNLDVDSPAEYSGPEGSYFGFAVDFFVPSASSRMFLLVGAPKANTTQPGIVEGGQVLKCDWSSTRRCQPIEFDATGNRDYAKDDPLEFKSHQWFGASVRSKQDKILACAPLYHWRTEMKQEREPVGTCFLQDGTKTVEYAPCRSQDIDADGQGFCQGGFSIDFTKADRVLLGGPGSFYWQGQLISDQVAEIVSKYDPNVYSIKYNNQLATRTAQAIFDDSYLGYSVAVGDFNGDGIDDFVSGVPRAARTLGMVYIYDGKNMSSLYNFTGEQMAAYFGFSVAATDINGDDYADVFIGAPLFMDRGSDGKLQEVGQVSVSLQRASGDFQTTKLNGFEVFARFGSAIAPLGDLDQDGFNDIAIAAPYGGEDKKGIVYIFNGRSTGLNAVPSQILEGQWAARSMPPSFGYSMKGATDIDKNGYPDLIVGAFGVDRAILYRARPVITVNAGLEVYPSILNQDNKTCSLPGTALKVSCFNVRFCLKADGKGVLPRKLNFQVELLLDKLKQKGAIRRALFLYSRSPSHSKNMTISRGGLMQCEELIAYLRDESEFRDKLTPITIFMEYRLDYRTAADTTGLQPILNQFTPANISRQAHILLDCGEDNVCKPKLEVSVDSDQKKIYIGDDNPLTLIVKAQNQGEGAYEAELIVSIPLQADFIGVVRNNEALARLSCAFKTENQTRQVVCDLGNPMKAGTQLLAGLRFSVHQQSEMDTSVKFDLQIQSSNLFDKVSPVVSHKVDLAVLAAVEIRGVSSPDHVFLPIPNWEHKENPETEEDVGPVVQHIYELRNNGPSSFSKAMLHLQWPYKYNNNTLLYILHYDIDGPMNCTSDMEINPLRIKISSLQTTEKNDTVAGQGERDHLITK
T1 sequence (P06756 891-1048 limits assumed): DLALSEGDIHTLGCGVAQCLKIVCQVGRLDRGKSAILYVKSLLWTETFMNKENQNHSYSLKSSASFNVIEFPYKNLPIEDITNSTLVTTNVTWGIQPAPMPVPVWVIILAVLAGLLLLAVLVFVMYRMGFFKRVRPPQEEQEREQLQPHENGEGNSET
T1 sequence (P05106 27-788): as the sequence (P05106 27-788) above

A word on the IC50: it is the midpoint of a concentration-inhibition curve. Turning to `CC(C)COC(=O)NC(Cc1ccc(NC(=O)c2cc(NC(=N)N)cc(C(F)(F)F)c2)cc1)C(=O)O` (stereo not shown) [Example 2, 4-[[[3-[(aminoiminomethyl)amino]-5-(trifluoromethyl)phenyl]carbonyl]amino]-N-[(2-methylpropoxy)carbonyl]phenylalanine, trifluoroacetate Salt], the IC50 in assay [1] turned out to be 0.00018 µM; in assay [2], 0.00808 µM.

Regarding `CCCCS(=O)(=O)NC(Cc1ccc(OCc2cccc(NC(=N)N)c2)cc1)C(=O)O` (stereo not shown) [Example 11, O-[[3-[(aminoiminomethyl)amino]-phenyl]methyl]-N-(butylsulfonyl)tyrosine, trifluoroacetate Salt monohydrate], the IC50 came out at 0.0022 µM in assay [1] and 0.004 µM in assay [2].

As to `N=C(N)c1cccc(C(=O)Nc2ccc(CCC(=O)O)cc2)c1` [Example 20, 4-[[[3-(Aminoiminomethyl)phenyl]carbonyl]-amino]benzenepropanoic Acid], the results for the concentration for half-maximal inhibition (IC50) in assay [1] and in assay [2] were greater than 100 µM and 39.9 µM, respectively.

Regarding `CC(CC(=O)OC(C)(C)C)c1ccc(NC(=O)c2cccc(NC(=N)N)c2)cc1` (stereo not drawn) [Example 30, 1,1-dimethylethyl 4-[[[3-[(aminoiminomethyl)amino]phenyl]carbonyl]amino]-β-methylbenzenepropanoate, trifluoroacetate Salt], the results for the 50% inhibitory concentration (IC50) in assay [1] and in assay [2] were 6.37 µM and 3.26 µM, respectively.

With `CC(=O)NC(Cc1ccc(NC(=O)c2cccc(NC(=N)N)c2)cc1)C(=O)O` (stereo not shown) [Example 35, N-acetyl-4-[[[3-[(aminoiminomethyl)amino]-phenyl]carbonyl]amino]phenylalanine, trifluoroacetate Salt], the figures for the IC50 in assay [1] and in assay [2] were 0.00269 µM and 0.148 µM, respectively.

As for `CCOC(=O)C(Cc1ccc(NC(=O)c2cccc(NC(=N)N)c2)cc1)NC(=O)c1ccccc1` (stereo not shown) [Example 36, 4-[[[3-[(aminoiminomethyl)amino]phenyl]-carbonyl]amino]-N-(phenylcarbonyl)phenylalanine Ethyl Ester, monohydrate trifluoroacetate Salt], the IC50 turned out to be 1.01 µM in assay [1] and 10.5 µM in assay [2].

Take `CCOC(=O)C(Cc1ccc(NC(=O)c2cccc(NC(=N)N)c2)cc1)NS(C)(=O)=O` (stereo not shown) [Example 37, 4-[[[3-[(aminoiminomethyl)amino]phenyl]carbonyl]amino]-N-(methylsulfonyl)phenylalanine Ethyl Ester, monohydrate trifluoroacetate Salt]: the half-maximal inhibitory concentration (IC50) in assay [1] was determined as 0.0978 µM; in assay [2], 2.38 µM.

In the case of `CCOC(=O)NC(Cc1ccc(NC(=O)c2cccc(NC(=N)N)c2)cc1)C(=O)OCC` (stereo not shown) [Example 38, 4-[[[3-[(aminoiminomethyl)amino]phenyl]-carbonyl]amino]-N-(ethoxycarbonyl)phenylalanine Ethyl Ester, trifluoroacetate Salt], the IC50 in assay [1] turned out to be 0.106 µM; in assay [2] it was 3.36 µM.

Take `CCOC(=O)C(Cc1ccc(NC(=O)c2cccc(NC(=N)N)c2)cc1)NS(=O)(=O)c1ccccc1` (stereo not shown) [Example 40, 4-[[[3-[(aminoiminomethyl)amino]phenyl]-carbonyl]amino]-N-(phenylsulfonyl)phenylalanine Ethyl Ester, monohydrate trifluoroacetate Salt]: the figures for the half-inhibitory concentration (IC50) in assay [1] and in assay [2] were 0.557 µM and 0.748 µM, respectively.

Turning to `COC(=O)[C@H](Cc1ccc(NC(=O)c2cccc(NC(=N)N)c2)cc1)NC(=O)OC(C)(C)C` [Example 45, 4-[[[3-[(aminoiminomethyl)amino]phenyl]-carbonyl]amino]-N-[(1,1-dimethylethoxy)carbonyl]-L-phenylalanine, methyl Ester, trifluoroacetate Salt], the 50% inhibitory concentration (IC50) in assay [1] came out at 0.0394 µM; in assay [2], 0.603 µM.

Regarding `CC(C)COC(=O)NC(Cc1ccc(NC(=O)c2cccc(NC(=N)N)c2)cc1)C(=O)O` (stereo not shown) [Example 53, 4-[[[3-[(aminoiminomethyl)amino]phenyl]-carbonyl]amino]-N-[(2-methylpropoxy)carbonyl]-phenylalanine, trifluoroacetate Salt], the figures for the concentration for half-maximal inhibition (IC50) in assay [1] and in assay [2] were 0.00056 µM and 0.0153 µM, respectively.

As for `COC(=O)NC(Cc1ccc(NC(=O)c2cccc(NC(=N)N)c2)cc1)C(=O)O` (stereo not shown) [Example 54, 4-[[[3-[(aminoiminomethyl)amino]phenyl]carbonyl]amino]-N-(methoxycarbonyl)phenylalanine, trifluoroacetate Salt], the values for the IC50 in assay [1] and in assay [2] were 0.00077 µM and 0.0365 µM, respectively.

In the case of `N=C(N)Nc1cccc(C(=O)Nc2ccc(C(CC(=O)O)C(=O)O)cc2)c1` (stereo not shown) [Example 69, [4-[[[3-[(aminoiminomethyl)amino]-phenyl]carbonyl]amino]phenyl]butanedioicAcid, trifluoroacetate Salt], the half-maximal inhibitory concentration (IC50) was 0.094 µM in assay [1] and 0.037 µM in assay [2].

Consider `N=C(N)Nc1cccc(C(=O)Nc2ccc(C(CC(=O)O)C(=O)NCC(=O)O)cc2)c1` (stereo not drawn) [Example 73, 4-[[[3-[(aminoiminomethyl)amino]phenyl]-carbonyl]amino]-beta-[[(carboxymethyl)amino]carbonyl]-benzenepropanoic Acid, trifluoroacetate Salt], for which the half-inhibitory concentration (IC50) in assay [1] was 0.141 µM; in assay [2] it was 0.04 µM.

As for `N=C(N)Nc1cccc(C(=O)Nc2ccc(CCC(=O)O)cc2O)c1` [Example 75, 4-[[[3-[(aminoiminomethyl)amino]phenyl]-carbonyl]amino]-3-hydroxybenzenepropanoic Acid, trifluoroacetate Salt], the values for the IC50 in assay [1] and in assay [2] were 0.0145 µM and 0.33 µM, respectively.

As to `N=C(N)Nc1cccc(C(=O)Nc2ccc(OCC(=O)O)cc2)c1` [Example 81, [4-[[[3-[(aminoiminomethyl)amino]phenyl]-carbonyl]amino]phenoxy]acetic Acid, trifluoroacetate Salt], the IC50 in assay [1] is 0.0191 µM; in assay [2], 0.129 µM.

Consider `N=C(N)Nc1cccc(C(=O)Nc2ccc(S(=O)(=O)CC(=O)O)cc2)c1` [Example 83, [[4-[[[3-[(aminoiminomethyl)amino]phenyl]carbonyl]amino]phenyl]sulfonyl]acetic Acid], for which the concentration for half-maximal inhibition (IC50) was 1.9 µM in assay [1] and 0.474 µM in assay [2].

`CCOC(=O)C(Oc1ccc(NC(=O)c2cccc(NC(=N)N)c2)cc1)c1ccccc1` (stereo not drawn) [Example 86C, ethyl α-[4-[[[3-[(aminoiminomethyl)amino]phenyl]carbonyl]amino]phenoxy]benzeneacetate, trifluoroacetate Salt]: the half-maximal inhibitory concentration (IC50) was 56.8 µM in assay [1] and greater than 100 µM in assay [2].

As to `CC(C)OC(=O)NC(Cc1ccc(NC(=O)c2ccc(Cl)c(NC(=N)N)c2)cc1)C(=O)O` (stereo not shown) [Example 87, 4[[[3-[(aminoiminomethyl)amino]-4-chlorophenyl]carbonyl]amino]-N-[(1-methylethoxy)carbonyl]phenylalanine], the values for the concentration for half-maximal inhibition (IC50) in assay [1] and in assay [2] were 0.00044 µM and 0.0853 µM, respectively.

Take `CCOC(=O)CSc1ccc(NC(=O)c2cccc(NC(=N)N)c2)cc1` [Example 90, ethyl[[4-[[(3-[(aminoiminomethyl)amino]phenyl]carbonyl]amino]phenyl]thio]acetic Acid, trifluoroacetate]: the concentration for half-maximal inhibition (IC50) came to 23.7 µM in assay [1] and 34.5 µM in assay [2].

These data come from patent US6251944A, “Para-substituted phenylene derivatives” (G. D. Searle & Company, priority 1999, dated 2001).
